Laboratory results from paper PMC11750672, “The in vivo metabolic pathway of Deg-AZM and in vitro investigations into the contribution of drug metabolizing enzymes and drug transporters in the drug interactions of Deg-AZM, a clinical-stage new transgelin agonist” (Frontiers in Pharmacology, 2025).

How the values were obtained:
[1] = system: inactivated monomeric enzyme; experiment: Recombinant CYPs phenotyping assay, inactivated enzyme control; type: in vitro ADME, human; details: control group with inactivated monomeric enzyme, 1.5 h
Procedure: (§1) Deg-AZM (1 μM) was treated with pooled NADPH (1 mM) and recombinant CYPs (rCYP1A2, rCYP2B6, rCYP2C8, rCYP2C9, rCYP2C19, rCYP2D6, and rCYP3A4, purchased from Research Institute for Liver Diseases Co. Ltd., Shanghai) at 25 pmol/mL for 90 min. The isoform-selective probe substrates served as positive controls (same as the positive controls in HLM phenotyping assays).

[2] = parameters: method as in Gu et al., 2024; details: rats, 0-24 h; ref Gu et al., 2024; cited from earlier work
rCYP3A4 = target: T1, rCYP3A4 (Homo sapiens, UniProt P08684); experiment: Recombinant CYPs phenotyping assay; type: in vitro ADME; details: 1 μM, 1.5 h
T1 construct: purchased Research Institute for Liver Diseases Co. Ltd., Shanghai
T1 sequence (P08684 whole entry): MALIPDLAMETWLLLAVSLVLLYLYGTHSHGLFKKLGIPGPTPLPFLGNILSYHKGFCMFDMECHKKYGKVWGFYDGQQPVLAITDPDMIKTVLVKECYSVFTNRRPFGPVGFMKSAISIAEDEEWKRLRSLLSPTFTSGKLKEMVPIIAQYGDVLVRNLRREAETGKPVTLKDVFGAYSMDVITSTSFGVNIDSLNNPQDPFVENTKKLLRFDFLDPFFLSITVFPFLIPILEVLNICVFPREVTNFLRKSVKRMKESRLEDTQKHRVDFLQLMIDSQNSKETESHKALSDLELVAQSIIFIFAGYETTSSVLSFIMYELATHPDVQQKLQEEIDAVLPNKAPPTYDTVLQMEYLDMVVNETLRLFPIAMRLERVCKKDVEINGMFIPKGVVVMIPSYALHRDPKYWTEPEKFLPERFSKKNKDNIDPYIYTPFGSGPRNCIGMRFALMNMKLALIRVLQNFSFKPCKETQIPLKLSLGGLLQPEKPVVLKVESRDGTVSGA
Procedure: as §1

human liver microsomes = system: human liver microsomes; parameters: method as in Gu et al., 2024; details: ref Gu et al., 2024; cited from earlier work
[3] = Exposure profiles of Deg-AZM and metabolites in rat plasma, urine, feces and bile (UPLC-QTOF-MS); type: in vivo, rats; details: / = not detected
Procedure: The plasma samples at 0.167 h, 0.5 h, 3 h and 8 h after administration were obtained from the study of tissue distribution in rats ([Gu et al., 2024]). Urine, feces and bile samples at 0–24 h after administration were obtained from the excretion study of a single gavage administration of 25 mg/kg Deg-AZM in rats ([Gu et al., 2024]).
Plasma samples were precipitated with methanol at a ratio of 1:3. Urine samples were diluted with 50% methanol at a ratio of 1:80. The feces was thoroughly ground and sonicated with a 50% methanol at a ratio of 1 g/10 mL to obtain the homogenate, then the homogenate were precipitated with methanol at a ratio of 1:1. Bile samples were precipitated with 50% methanol at a ratio of 1:1. The above obtained samples were vortexed for 1 min and centrifugated at 4°C, 12,000 rpm for 10 min. Finally, the upper layer was analyzed using the UPLC-QTOF-MS system.
The metabolites of Deg-AZM in the plasma, urine, feces and bile samples were identified by UPLC-QTOF-MS system. Liquid chromatography was performed on an ACQUITY UPLC^TM I-Class UPLC unit with a Waters ACQUITY UPLC HSS T3 (100 × 2.1 mm, 1.8 µm). A gradient program was employed with the mobile phase combining solvent A (0.02% formic acid in 5% acetonitrile) and solvent B (acetonitrile) as follows: 100% A (0–0.5 min), 100%–85% A (0.5–7 min), 85%–5% A (7–9 min), 5% A (9–12 min), 5%–100% A (12–15 min). The flow rate was 0.40 mL/min. The column temperature was maintained at 40°C.
A Waters Q-TOF Xevo G2-XS Spectrometer equipped with ESI source under positive ion mode was utilized to conduct mass spectrometry detection, for which the MS^E mode was set at the mass range of 100–1,000 Da. The cone voltage was 40 V. The desolvation temperature was set at 500°C and source temperature was 100°C. The desolvation gas flow rate was 800 L/h and the cone gas flow rate was 50 L/h. In MS^E centroid mode, the MS data were acquired with the low energy function in the trap collision energy (6 eV), and the tandem mass data were acquired with the high energy function in the ramp trap collision energy (35–45 eV).
The extraction ion chromatogram of plasma samples at 0.167 h, 0.5 h, 3 h and 8 h after administration of Deg-AZM in rats was shown in Figure 2. The extraction ion chromatogram of urine, feces and bile samples collected from 0 to 24 h after oral administration of Deg-AZM in rats was shown in Figure 3. The AUC0-t of Deg-AZM and its metabolites in plasma sample were calculated by trapezoidal rule based on the chromatographic peak area. 21 metabolites were found in rat plasma, with M0 (Deg-AZM) and metabolite M2 (demethylated) being the main exposure forms in rat plasma. M0 and M2 accounted for 61.6% and 23.0% of the total related substances in rat plasma, respectively. The relative proportions of Deg-AZM and its metabolites in urine, feces and bile samples were evaluated by the chromatographic peak area, as shown in Figure 4. The detailed proportion of Deg-AZM and its metabolites could be found in Supplementary Table S1. M0 and 28 metabolites were found in the urine of rats. […] M0 and 42 metabolites were found in the feces of rats. Metabolite M1-2 (monohydroxylation, 18.1%) and metabolite M2 (16.6%) were the main forms of fecal excretion of Deg-AZM in rats after oral administration. M0 and 38 metabolites were found in the bile samples of rats. Metabolite M1-2 (monohydroxylation, 19.2%) and metabolite M2 (16.5%) were the main forms of biliary excretion of Deg-AZM in rats after oral administration.

CYP2C9 = target: T2, CYP2C9 (Homo sapiens, UniProt P11712); experiment: HLM phenotyping assay with CYP2C9 inhibitor sulfaphenazole; type: in vitro ADME; details: 1 μM, HLM 0.5 mg/mL, NADPH, 90 min, with 10 µM sulfaphenazole
T2 construct: from tissue; host or cells: human liver microsomes
T2 sequence (P11712 whole entry): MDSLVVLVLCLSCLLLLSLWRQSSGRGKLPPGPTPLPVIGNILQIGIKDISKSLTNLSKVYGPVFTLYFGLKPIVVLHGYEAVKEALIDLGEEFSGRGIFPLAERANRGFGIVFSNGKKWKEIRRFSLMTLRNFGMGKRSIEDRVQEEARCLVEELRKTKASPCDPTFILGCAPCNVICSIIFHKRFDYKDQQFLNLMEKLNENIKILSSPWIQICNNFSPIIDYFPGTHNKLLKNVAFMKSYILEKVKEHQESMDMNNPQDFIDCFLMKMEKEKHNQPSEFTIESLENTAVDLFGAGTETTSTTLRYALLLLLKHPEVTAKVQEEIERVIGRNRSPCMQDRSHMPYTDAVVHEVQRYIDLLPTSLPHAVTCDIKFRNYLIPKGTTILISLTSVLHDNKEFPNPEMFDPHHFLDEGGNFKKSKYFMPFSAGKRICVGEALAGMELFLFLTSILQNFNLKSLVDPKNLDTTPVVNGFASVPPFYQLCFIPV
Procedure: Deg-AZM (1 μM) was treated with pooled HLM (0.5 mg/mL) and NADPH (1 mM) for 90 min with or without seven specific inhibitors (10 µM furafylline for CYP1A2, 10 µM ticlopidine for CYP2B6, 5 µM montelukast for CYP2C8, 10 µM sulfaphenazole for CYP2C9, 10 µM ticlopidine for CYP2C19, 2.5 µM quinidine for CYP2D6, 1 µM ketoconazole for CYP3A). Isoform-selective probe substrates, 10 µM phenacetin for CYP1A2, 20 µM bupropion for CYP2B6, 2 µM amodiaquine for CYP2C8, 5 µM diclofenac for CYP2C9, 20 µM S-mephenytoin for CYP2C19, 5 µM bufuralol for CYP2D6, 2 µM midazolam for CYP3A4, were used as positive controls.

SMILES: CCC1OC(=O)C(C)C(O)C(C)C(O)C(C)(O)CC(C)CN(C)C(C)C(O)C1(C)O (centres unmarked) [Deg-AZM, Deglycosylated azithromycin]
- Residual proportion of Deg-AZM [1]: 107%
- Amount excreted in original form from feces [2]: 1.81 % of the administered dose
- Amount excreted in original form from urine [2]: 14.9 % of the administered dose
- Average residual proportion of Deg-AZM (rCYP3A4; 25 pmol/mL CYP3A4 monomeric enzyme): 75.9%
- Elimination proportion of Deg-AZM (rCYP3A4; CYP3A4 monomeric enzyme): greater than 15%
- T1/2 (human liver microsomes): 46.5 min
- Proportion in total related substances, Bile ([3]; rat bile 0-24 h, single gavage 25 mg/kg Deg-AZM, by peak area): 7.95%
- Proportion in total related substances, Feces ([3]; rat feces 0-24 h, single gavage 25 mg/kg Deg-AZM, by peak area): 9.12%
- Proportion in total related substances, Plasma ([3]; rat plasma 0.167-8 h after oral Deg-AZM, by AUC0-t of chromatographic peak area): 61.6%
- Proportion in total related substances, Urine ([3]; rat urine 0-24 h, single gavage 25 mg/kg Deg-AZM, by peak area): 62.9%
- Deg-AZM remaining (CYP2C9): 67.5%
